Assay results as given in PMC5664067, “Investigating the Interaction of Cyclic RGD Peptidomimetics with αVβ6 Integrin by Biochemical and Molecular Docking Studies” (Cancers, 2017).
Read-outs that look alike come from different tables or passages of the source.

Legend:
integrin αVβ6 = system: integrin αVβ6; design: method as in PMID 28074920; conditions: immobilized LAP and soluble integrin; cited from earlier work
[1] = target: T1, Recombinant human integrin αVβ6 receptor (Homo sapiens, UniProt P06756+P18564); assay: Competitive solid-phase binding assay: inhibition of biotinylated fibronectin binding to isolated αVβ6 integrin; conditions: for IC50 (αVβ6)/IC50 (αVβ3): selectivity ratio; for αVβ6 IC50: 50% inhibition of biotinylated fibronectin (1 μg/mL) binding to isolated αVβ6, mean ± SD of triplicate determinations
T1 construct: purchased R&D Systems
Description: The assay was performed according to previously reported procedures with slight modifications.
Recombinant human integrin αVβ6 receptor (R&D Systems, Minneapolis, MN, USA) was diluted to 1.0 μg/mL in coating buffer containing 20 mM Tris-HCl (pH 7.4), 150 mM NaCl, 1 mM MnCl2, 2 mM CaCl2, and 1 mM MgCl2. An aliquot of diluted receptor (100 μL/well) was added to 96-well microtiter plates (Nunc MaxiSorp, Thermo Fisher Scientific, Roskilde, Denmark) and incubated overnight at 4 °C. The plates were incubated with blocking solution (coating buffer plus 1% bovine serum albumin) for additional 2 h at room temperature to block nonspecific binding. After washing twice with blocking solution, plates were incubated shaking in the dark for 3 h at room temperature, with various concentrations (10^−4–10^−11 M) of test compounds in the presence of 1 μg/mL biotinylated fibronectin (Molecular Innovations, Novi, MI, USA). Biotinylation was performed using an EZ-Link Sulfo-NHS-Biotinylation kit (Pierce, Rockford, IL, USA). After washing three times, the plates were incubated shaking for 1 h, at room temperature, with streptavidin-biotinylated peroxidase complex (Amersham Biosciences, Uppsala, Sweden). After washing 3 times with blocking solution, plates were incubated with 100 μL/well of Substrate Reagent Solution (R&D Systems) for 30 min shaking in the dark, before stopping the reaction with the addition of 50 μL/well 2N H2SO4. Absorbance at 415 nm was read in a SynergyTM HT Multi-Detection Microplate Reader (BioTek Instruments, Inc., Winooski, VT, USA). Each data point represents the average of triplicate wells; data analysis was carried out by nonlinear regression analysis with GraphPad Prism software (GraphPad Software, Inc., La Jolla, CA, USA). Each experiment was repeated in triplicate.

human endothelial cells = system: human endothelial cells; design: method as in PMID 25053992; conditions: cited from earlier work
human glioblastoma cells = system: human glioblastoma cells; design: method as in PMID 25761230; conditions: cited from earlier work
[2] = system: FAK/Akt integrin-activated transduction signaling pathway; design: method as in PMID 25761230; conditions: human glioblastoma cells; cited from earlier work
different cancer cells = system: different cancer cells; design: method as in PMID 25053992; conditions: cited from earlier work
αVβ3 integrin [3] = target: T2, αVβ3 integrin (Homo sapiens, UniProt P05106+P06756); design: method as in PMID 22517378; conditions: 50% inhibition of biotinylated vitronectin binding to αVβ3; cited from earlier work
αVβ3 integrin [4] = target: T2, αVβ3 integrin; assay: Inhibition of biotinylated vitronectin binding to isolated αVβ3 integrin; conditions: 50% inhibition of biotinylated vitronectin binding to isolated αVβ3; new RAD peptidomimetic tested for this paper

T2 sequence (P06756 31-889 limits assumed): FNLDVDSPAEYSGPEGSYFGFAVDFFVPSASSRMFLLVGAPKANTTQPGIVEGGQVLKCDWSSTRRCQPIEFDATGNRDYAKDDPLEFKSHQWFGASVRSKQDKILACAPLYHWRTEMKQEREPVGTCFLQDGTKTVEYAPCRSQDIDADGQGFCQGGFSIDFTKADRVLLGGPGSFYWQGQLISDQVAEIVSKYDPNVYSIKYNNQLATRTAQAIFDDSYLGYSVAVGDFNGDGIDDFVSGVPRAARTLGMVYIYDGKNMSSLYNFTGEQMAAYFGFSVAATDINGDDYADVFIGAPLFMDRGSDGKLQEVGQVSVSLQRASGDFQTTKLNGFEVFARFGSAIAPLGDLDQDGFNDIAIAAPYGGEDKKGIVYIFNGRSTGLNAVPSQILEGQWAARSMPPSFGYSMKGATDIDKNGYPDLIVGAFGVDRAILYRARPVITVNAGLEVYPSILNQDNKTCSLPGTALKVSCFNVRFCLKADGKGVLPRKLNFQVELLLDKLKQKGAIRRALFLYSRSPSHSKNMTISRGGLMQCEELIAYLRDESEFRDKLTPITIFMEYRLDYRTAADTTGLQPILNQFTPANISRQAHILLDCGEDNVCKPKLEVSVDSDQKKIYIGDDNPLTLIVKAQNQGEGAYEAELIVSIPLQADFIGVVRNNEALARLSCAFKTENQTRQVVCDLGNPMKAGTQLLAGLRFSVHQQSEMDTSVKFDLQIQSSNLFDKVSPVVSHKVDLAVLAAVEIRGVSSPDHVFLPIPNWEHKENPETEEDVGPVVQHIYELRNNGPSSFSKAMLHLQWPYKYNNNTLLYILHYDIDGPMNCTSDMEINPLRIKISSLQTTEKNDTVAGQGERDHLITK
T2 sequence (P06756 891-1048 partner limits assumed): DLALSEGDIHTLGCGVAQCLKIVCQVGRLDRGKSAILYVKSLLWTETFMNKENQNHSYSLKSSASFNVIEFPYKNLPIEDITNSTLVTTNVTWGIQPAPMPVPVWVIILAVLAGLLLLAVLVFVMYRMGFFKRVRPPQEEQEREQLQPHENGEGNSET
T2 sequence (P05106 27-788): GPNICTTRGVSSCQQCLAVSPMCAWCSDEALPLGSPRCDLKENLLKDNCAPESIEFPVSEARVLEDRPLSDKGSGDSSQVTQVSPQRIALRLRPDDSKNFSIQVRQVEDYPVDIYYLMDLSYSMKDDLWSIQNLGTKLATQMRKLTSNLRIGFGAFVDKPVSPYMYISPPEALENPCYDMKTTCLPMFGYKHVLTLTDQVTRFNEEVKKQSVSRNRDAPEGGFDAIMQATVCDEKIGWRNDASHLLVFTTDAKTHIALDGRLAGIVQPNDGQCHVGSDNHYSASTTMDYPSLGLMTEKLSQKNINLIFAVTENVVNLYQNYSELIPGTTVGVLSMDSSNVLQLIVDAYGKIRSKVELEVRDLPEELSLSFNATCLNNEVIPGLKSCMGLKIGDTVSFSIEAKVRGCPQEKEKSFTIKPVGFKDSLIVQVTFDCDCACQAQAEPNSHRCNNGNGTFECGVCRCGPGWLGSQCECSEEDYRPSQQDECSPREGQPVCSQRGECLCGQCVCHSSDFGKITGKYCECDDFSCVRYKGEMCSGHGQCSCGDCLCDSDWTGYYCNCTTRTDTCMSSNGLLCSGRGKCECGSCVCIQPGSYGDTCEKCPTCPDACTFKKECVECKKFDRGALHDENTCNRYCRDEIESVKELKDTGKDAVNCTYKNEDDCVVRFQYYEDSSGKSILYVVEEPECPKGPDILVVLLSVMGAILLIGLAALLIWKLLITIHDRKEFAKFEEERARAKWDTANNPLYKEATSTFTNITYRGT
T1 sequence (P06756 31-889 limits assumed): as the sequence (P06756 31-889 limits assumed) above
T1 sequence (P06756 891-992 partner limits assumed): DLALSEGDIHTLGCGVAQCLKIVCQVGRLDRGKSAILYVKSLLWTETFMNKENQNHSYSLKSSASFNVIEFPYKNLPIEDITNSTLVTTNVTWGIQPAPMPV
T1 sequence (P18564 22-707 limits assumed): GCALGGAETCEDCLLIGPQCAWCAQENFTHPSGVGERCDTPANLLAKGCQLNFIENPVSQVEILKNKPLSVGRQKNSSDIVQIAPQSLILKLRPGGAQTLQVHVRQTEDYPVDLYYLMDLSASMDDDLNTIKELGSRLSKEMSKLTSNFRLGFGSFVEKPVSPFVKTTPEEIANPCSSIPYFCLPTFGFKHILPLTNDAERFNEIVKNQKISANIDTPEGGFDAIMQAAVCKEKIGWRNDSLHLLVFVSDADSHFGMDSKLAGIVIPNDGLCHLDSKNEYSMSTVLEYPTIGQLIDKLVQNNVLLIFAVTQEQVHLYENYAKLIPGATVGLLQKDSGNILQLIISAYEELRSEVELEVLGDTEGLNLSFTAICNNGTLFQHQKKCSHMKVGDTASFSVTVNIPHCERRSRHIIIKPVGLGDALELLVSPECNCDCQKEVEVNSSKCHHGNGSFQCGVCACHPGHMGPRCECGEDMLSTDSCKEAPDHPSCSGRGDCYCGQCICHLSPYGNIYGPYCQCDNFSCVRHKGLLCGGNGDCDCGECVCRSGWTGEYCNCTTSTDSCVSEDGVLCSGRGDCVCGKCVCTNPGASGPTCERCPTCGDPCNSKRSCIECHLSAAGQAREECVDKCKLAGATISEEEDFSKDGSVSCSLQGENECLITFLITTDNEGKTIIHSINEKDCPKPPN

Compound	IC50 [1] [nM]	IC50 (αVβ6)/IC50 (αVβ3) [1]	further results
CC(C)[C@H]1C(=O)N[C@@H](CCCNC(=N)N)C(=O)NCC(=O)N[C@@H](CC(=O)O)C(=O)N[C@H](Cc2ccccc2)C(=O)N1C [Compound 1a, cyclo[RGDf(N-Me)V]]			αVβ6 IC50 (integrin αVβ6): micromolar
N=C(N)NCCC[C@@H]1NC(=O)C[C@@H]2NC(=O)[C@@H](CNC(=O)[C@H](CC(=O)O)NC(=O)CNC1=O)N(Cc1ccccc1)C2=O [Compound 2]	345 ± 1	108	
N=C(N)NCCC[C@@H]1NC(=O)C[C@H]2NC(=O)[C@H](CNC(=O)[C@H](CC(=O)O)NC(=O)CNC1=O)N(Cc1ccccc1)C2=O [Compound 3]	95.6 ± 24.6	21	inhibition of angiogenesis induced by pro-angiogenic growth factors (human endothelial cells): significantly inhibit; effects on integrin-mediated cell infiltration processes (human glioblastoma cells): inhibitory effects; effects on the FAK/Akt integrin-activated transduction signaling pathway [2]: inhibitory effects; inhibition of cell adhesion (different cancer cells): significantly inhibit
N=C(N)NCCC[C@@H]1NC(=O)C[C@H]2C(=O)N[C@H](CNC(=O)[C@H](CC(=O)O)NC(=O)CNC1=O)C(=O)N2Cc1ccccc1 [Compound 4]	95.3 ± 4.9		
N=C(N)NCCC[C@@H]1NC(=O)C[C@H]2C(=O)N(Cc3ccccc3)[C@H](CNC(=O)[C@H](CC(=O)O)NC(=O)CNC1=O)C(=O)N2Cc1ccccc1 [Compound 5]	173 ± 52.5		IC50 (αVβ3 integrin [3]): 12.6 ± 5 nM
N=C(N)NCCC[C@@H]1NC(=O)C[C@@H]2C(=O)N[C@@H](CNC(=O)[C@H](CC(=O)O)NC(=O)CNC1=O)C(=O)N2Cc1ccccc1 [Compound 6]	76.6 ± 4.2	37	
N=C(N)NCCC[C@@H]1NC(=O)C[C@@H]2C(=O)N(Cc3ccccc3)[C@@H](CNC(=O)[C@H](CC(=O)O)NC(=O)CNC1=O)C(=O)N2Cc1ccccc1 [Compound 7]	2.3 ± 0.8		αVβ3 IC50 (αVβ3 integrin [3]): subnanomolar; αVβ6 IC50 [1]: low nanomolar
CC1NC(=O)[C@H](CCCNC(=N)N)NC(=O)C[C@H]2NC(=O)[C@H](CNC(=O)[C@H](CC(=O)O)NC1=O)N(Cc1ccccc1)C2=O (some centres unmarked) [Compound 8, Cyclo[DKP-3-RAD]]		3	αVβ3 IC50 (αVβ3 integrin [4]): micromolar; αVβ6 IC50 [1]: micromolar
